Measured values reported in ChEMBL document CHEMBL5126563, “Design, synthesis, in silico studies, and antiproliferative evaluations of novel indolin-2-one derivatives containing 3-hydroxy-4-pyridinone fragment” (Bioorg Med Chem Lett, 2022).

Experiments:
Format in all cases: functional, cell-based
K562 = test: Cytotoxicity against human K562 cells measured after 48 hrs by MTT assay; conditions: K562, 48 h
MOLM-13 = test: Cytotoxicity against human MOLM-13 cells measured after 48 hrs by MTT assay; conditions: MOLM-13, 48 h
MCF7 = test: Cytotoxicity against human MCF7 cells measured after 48 hrs by MTT assay; conditions: MCF7, 48 h
A549 = test: Cytotoxicity against human A549 cells measured after 48 hrs by MTT assay; conditions: A549, 48 h

| SMILES | EC50 (K562) [µM] | EC50 (MOLM-13) [µM] | EC50 (MCF7) [µM] | EC50 (A549) [µM] |
| --- | --- | --- | --- | --- |
| N#Cc1cc2cc(CN3CCC(Nc4ncnc5sc(CC(F)(F)F)cc45)CC3)c(O)cc2n1Cc1cn[nH]c1 | 2.7 | 0.14 |  |  |
| CC(=O)Nc1ccc(NC(=O)CN2C(=O)/C(=N\NC(=O)Cn3ccc(=O)c(O)c3C)c3ccccc32)cc1 |  |  | 51.9 | > 100 |
| Cc1c(O)c(=O)ccn1CC(=O)N/N=C1\C(=O)N(CC(=O)Nc2cccc(Cl)c2)c2ccccc21 |  |  | 34.6 | 28 |
| Cc1cccc(NC(=O)CN2C(=O)/C(=N\NC(=O)Cn3ccc(=O)c(O)c3C)c3ccccc32)c1C |  |  | 51.9 | 39.2 |
| Cc1ccc(NC(=O)CN2C(=O)/C(=N\NC(=O)Cn3ccc(=O)c(O)c3C)c3ccccc32)cc1 |  |  | 52.2 | 47.5 |
| Cc1c(O)c(=O)ccn1CC(=O)N/N=C1\C(=O)N(CC(=O)Nc2ccccc2Cl)c2ccccc21 |  |  | 46.4 | > 100 |
| Cc1c(O)c(=O)ccn1CC(=O)N/N=C1\C(=O)N(CC(=O)Nc2ccc(Cl)cc2Cl)c2ccccc21 | 1.81 | 1.62 | 43.2 | 61.5 |
| Cc1c(O)c(=O)ccn1CC(=O)N/N=C1\C(=O)N(CC(=O)Nc2ccccc2)c2ccccc21 |  |  | 48.4 | 29.2 |
| Cc1c(O)c(=O)ccn1CC(=O)N/N=C1\C(=O)N(CC(=O)Nc2cc(Cl)cc(Cl)c2)c2ccccc21 | 1.22 | 0.69 | 35.1 | 22.1 |
| Cc1c(O)c(=O)ccn1CC(=O)N/N=C1\C(=O)N(CC(=O)Nc2ccc(Cl)cc2)c2ccccc21 |  |  | 31.4 | 28.3 |
| Cc1c(O)c(=O)ccn1CC(=O)N/N=C1\C(=O)N(CC(=O)Nc2ccc(Br)cc2)c2ccccc21 | 1.85 | 1.17 | 32.5 | 29.3 |
| COc1ccc(NC(=O)CN2C(=O)/C(=N\NC(=O)Cn3ccc(=O)c(O)c3C)c3ccccc32)cc1 |  |  | > 100 | 78 |
| C#Cc1cccc(Nc2ncnc3cc(OCCOC)c(OCCOC)cc23)c1 [ERLOTINIB] |  |  | 2.83 | 0.29 |
